Results from patent US8697742B2, “BCRP/ABCG2 inhibitor” (Kabushiki Kaisha Yakult Honsha, priority 2005, dated 2014).
In brackets after ≈: the same amount, converted by molar mass. Structures can show the parent of a compound that is named as a salt.

Tested on: A549/SN-38-4 cells
Test: Effect of overcoming SN-38 resistance of BCRP-expressing A549/SN-38-4 cells
Format: cell-based, human
Conditions: Homo sapiens, A549, 48 h, concentration for 50% reduction of relative SN-38 resistance value (IC50 A549/SN-38-4 / IC50 A549); 48 hours culture with SN-38; read-out: Effect of overcoming resistance EC50
Protocol: The human lung cancer A549 cells or the A549/SN-38-4 cells were suspended in a Ham's F-12 medium containing 10% FBS, 100 U/mL of penicillin, and 100 μg/mL of streptomycin (10% FBS/Ham's F-12), and the resultant suspension was inoculated into a 96-well microplate (2×10^3 cells/50 μL/well), followed by culturing at 5% CO2 and 37° C. overnight. […] After completion of culturing, the number of viable cells was counted by use of a viable cell counting reagent [TetraColor ONE (trademark), product of Seikagaku Corporation] according to the attached instruction manual. […] The greater the relative resistance value, the higher the level of acquired resistance.

EC50	Compound
0.06 µg/mL (≈ 0.225 µM)	COc1ccc(/C(C#N)=C/c2ccccn2)cc1OC [Compound 38, (Z)-2-(3,4-dimethoxy-phenyl)-3-pyridin-2-yl-acrylonitrile]
0.19 µg/mL (≈ 0.525 µM)	COc1ccc2nc(Cl)c(/C=C(\C#N)n3nnc4ccccc43)cc2c1 [Compound 83, (E)-2-benzotriazol-1-yl-3-(2-chloro-6-methoxy-quinolin-3-yl)-acrylonitrile]
0.063 µg/mL (≈ 0.102 µM)	CCN(CC)c1ccc(NC(=O)CCC(=O)OC2CCN(c3ccc(/C=C(\C#N)c4ccc(OC)c(OC)c4)s3)CC2)cc1 [Compound 99, 1-[5-[(Z)-2-cyano-2-(3,4-dimethoxy-phenyl)-vinyl]-thiophen-2-yl]-piperidin-4-yl N-(4-diethylamino-phenyl)-succinamate]
0.011 µg/mL (≈ 0.0346 µM)	COc1ccc(/C(C#N)=C/c2cn(C)c3ccccc23)cc1OC [Compound 68, (Z)-2-(3,4-dimethoxy-phenyl)-3-(1-methyl-1H-indol-3-yl)-acrylonitrile]
0.46 µg/mL (≈ 1.44 µM)	N#C/C(=C\c1csc2ccccc12)c1nc2ccccc2s1 [Compound 90, (E)-3-benzo[b]thiophen-3-yl-2-benzothiazol-2-yl-acrylonitrile]
0.011 µg/mL (≈ 0.0289 µM)	COc1ccc2nc(Cl)c(/C=C(\C#N)c3ccc(OC)c(OC)c3)cc2c1 [Compound 73, (Z)-3-(2-chloro-6-methoxy-quinolin-3-yl)-2-(3,4-dimethoxy-phenyl)-acrylonitrile]
0.011 µg/mL (≈ 0.0314 µM)	COc1ccc(/C(C#N)=C/c2cc3ccccc3nc2Cl)cc1OC [Compound 70, (Z)-3-(2-chloro-quinolin-3-yl)-2-(3,4-dimethoxy-phenyl)-acrylonitrile]
0.019 µg/mL (≈ 0.059 µM)	COc1ccc2nc(Cl)c(/C=C(\C#N)c3cccnc3)cc2c1 [Compound 80, (Z)-3-(2-chloro-6-methoxy-quinolin-3-yl)-2-pyridin-3-yl-acrylonitrile]
0.11 µg/mL (≈ 0.304 µM)	COc1ccc(-c2cc(/C=C(\C#N)c3ccc(OC)c(OC)c3)no2)cc1 [Compound 77, (Z)-2-(3,4-dimethoxy-phenyl)-3-[5-(4-methoxy-phenyl)-isoxazol-3-yl]-acrylonitrile]
0.037 µg/mL (≈ 0.115 µM)	COc1ccc(/C(C#N)=C/c2csc3ccccc23)cc1OC [Compound 66, (Z)-3-benzo[b]thiophen-3-yl-2-(3,4-dimethoxy-phenyl)-acrylonitrile]
0.13 µg/mL (≈ 0.371 µM)	COc1ccc(/C(C#N)=C/c2ccc(Br)s2)cc1OC [Compound 2, (Z)-3-(5-bromo-thiophen-2-yl)-2-(3,4-dimethoxy-phenyl)-acrylonitrile]
0.078 µg/mL (≈ 0.239 µM)	COc1ccc2nc(Cl)c(/C=C(\C#N)c3ccsc3)cc2c1 [Compound 82, (Z)-3-(2-chloro-6-methoxy-quinolin-3-yl)-2-thiophen-3-yl-acrylonitrile]
0.077 µg/mL (≈ 0.243 µM)	COc1ccc(/C(C#N)=C/c2ccc3ccccc3n2)cc1OC [Compound 78, (Z)-2-(3,4-dimethoxy-phenyl)-3-quinolin-2-yl-acrylonitrile]
0.002 µg/mL (≈ 0.00571 µM)	COc1ccc(/C(C#N)=C/c2cc(-c3ccc(F)cc3)on2)cc1OC [Compound 76, (Z)-2-(3,4-dimethoxy-phenyl)-3-[5-(4-fluoro-phenyl)-isoxazol-3-yl]-acrylonitrile]

The next lines start with the compound.

Compound	EC50
COc1ccc(/C(C#N)=C/c2ccc(N)s2)cc1OC [Compound 3, (Z)-3-(5-amino-thiophen-2-yl)-2-(3,4-dimethoxy-phenyl)-acrylonitrile]	0.032 µg/mL (≈ 0.112 µM)
COc1ccc(/C(C#N)=C/c2ccc(N3CCOCC3)o2)cc1OC [Compound 25, (Z)-2-(3,4-dimethoxy-phenyl)-3-(5-morpholin-4-yl-furan-2-yl)-acrylonitrile]	0.013 µg/mL (≈ 0.0382 µM)
COc1ccc(/C=C(\C#N)c2cccnc2)cc1OC [Compound 44, (Z)-3-(3,4-dimethoxy-phenyl)-2-pyridin-3-yl-acrylonitrile]	0.056 µg/mL (≈ 0.21 µM)
COc1ccc(/C(C#N)=C/c2ccc(N3CCN(CCO)CC3)s2)cc1OC.CS(=O)(=O)O [Compound 59, (Z)-2-(3,4-dimethoxy-phenyl)-3-{5-[4-(2-hydroxy-ethyl)-piperazin-1-yl]-thiophen-2-yl}-acrylonitrile methanesulfonate]	0.061 µg/mL
COc1ccc(/C(C#N)=C/c2ccc(N3CCN(C)CC3)s2)cc1OC [Compound 8, (Z)-2-(3,4-dimethoxy-phenyl)-3-[5-(4-methyl-piperazin-1-yl)-thiophen-2-yl]-acrylonitrile]	0.045 µg/mL (≈ 0.122 µM)
COc1ccc(/C(C#N)=C/c2ccc(Br)o2)cc1OC [Compound 54, (Z)-3-(5-bromo-furan-2-yl)-2-(3,4-dimethoxy-phenyl)-acrylonitrile]	0.036 µg/mL (≈ 0.108 µM)
N#C/C(=C\c1ccnc2ccccc12)c1cccnc1 [Compound 86, (Z)-2-pyridin-3-yl-3-quinolin-4-yl-acrylonitrile]	0.12 µg/mL (≈ 0.466 µM)
CCN(CC)CCCNC(=O)CCC(=O)OC1CCN(c2ccc(/C=C(\C#N)c3ccc(OC)c(OC)c3)s2)CC1 [Compound 61, 1-[5-[(Z)-2-cyano-2-(3,4-dimethoxy-phenyl)-vinyl]-thiophen-2-yl]-piperidin-4-yl N-(3-diethylamino-propyl)-succinamate hydrochloride]	0.044 µg/mL
CCN(CC)CCN(C)C(=O)CCC(=O)OC1CCN(c2ccc(/C=C(\C#N)c3ccc(OC)c(OC)c3)s2)CC1 [Compound 98, 1-[5-[(Z)-2-cyano-2-(3,4-dimethoxy-phenyl)-vinyl]-thiophen-2-yl]-piperidin-4-yl N-(2-diethylamino-ethyl)-N-methyl-succinamate hydrochloride]	0.1 µg/mL
COc1ccc(/C(C#N)=C/c2ccc(N3CCN(CCO)CC3)s2)cc1OC.O=S(=O)(O)O [Compound 101, (Z)-2-(3,4-dimethoxy-phenyl)-3-{5-[4-(2-hydroxy-ethyl)-piperazin-1-yl]-thiophen-2-yl}-acrylonitrile sulfate]	0.013 µg/mL
COc1ccc(/C=C(\C#N)c2nc3ccccc3s2)cc1OC [Compound 74, (E)-2-benzothiazol-2-yl-3-(3,4-dimethoxy-phenyl)-acrylonitrile]	0.021 µg/mL (≈ 0.0651 µM)
COc1ccc2nc(Cl)c(/C=C(\C#N)c3ccccn3)cc2c1 [Compound 79, (Z)-3-(2-chloro-6-methoxy-quinolin-3-yl)-2-pyridin-2-yl-acrylonitrile]	0.006 µg/mL (≈ 0.0186 µM)

Same assay, conditions: concentration for 50% reduction of relative SN-38 resistance value (IC50 A549/SN-38-4 / IC50 A549); 48 hours culture with SN-38

Compound	Effect of overcoming resistance EC50
COc1ccc(/C(C#N)=C/c2ccc(CO)o2)cc1OC [Compound 20, (Z)-2-(3,4-dimethoxy-phenyl)-3-(5-hydroxy-methyl-furan-2-yl)-acrylonitrile]	0.49 µg/mL
COc1ccc(/C(C#N)=C/c2ccc(N3CCN(CCO)CC3)s2)cc1OC.COc1ccc(/C(C#N)=C/c2ccc(N3CCN(CCO)CC3)s2)cc1OC.O=S(=O)(O)O [Compound 100, (Z)-2-(3,4-dimethoxy-phenyl)-3-{5-[4-(2-hydroxy-ethyl)-piperazin-1-yl]-thiophen-2-yl}-acrylonitrile ½ sulfate]	0.012 µg/mL

Same assay, conditions: concentration for 50% reduction of relative SN-38 resistance value (IC50 A549/SN-38-4 / IC50 A549); 48 hours culture with SN-38; hydrochloride

Effect of overcoming resistance EC50	Compound
0.2 µg/mL	COc1ccc(/C(C#N)=C/c2ccc(N(C)CCN(C)C)s2)cc1OC [Compound 15, (Z)-2-(3,4-dimethoxy-phenyl)-3-{5-[(2-dimethylamino-ethyl)-methyl-amino]-thiophen-2-yl}-acrylonitrile hydrochloride]

Same assay, conditions: concentration for 50% reduction of relative SN-38 resistance value (IC50 A549/SN-38-4 / IC50 A549); 48 hours culture with SN-38; nitrate

Compound	Effect of overcoming resistance EC50
COc1ccc(/C(C#N)=C/c2ccc(N3CCN(CCO)CC3)s2)cc1OC [Compound 102, (Z)-2-(3,4-dimethoxy-phenyl)-3-{5-[4-(2-hydroxy-ethyl)-piperazin-1-yl]-thiophen-2-yl}-acrylonitrile nitrate]	0.017 µg/mL

Tested on: K562/MDR cells
Test: Effect on paclitaxel (multidrug) resistance of human MDR1 gene-transduced K562 cells
Format: cell-based
Conditions: Homo sapiens; concentration for 50% reduction of relative paclitaxel resistance value; K562/MDR vs K562; 72 hours; read-out: Effect of overcoming resistance EC50
Source text: After completion of culturing, the number of viable cells was counted by use of TetraColor ONE according to the manufacture's instruction manual.

EC50	Compound
> 5 µg/mL	COc1ccc(/C(C#N)=C/c2ccccn2)cc1OC [Compound 38, (Z)-2-(3,4-dimethoxy-phenyl)-3-pyridin-2-yl-acrylonitrile]
> 5 µg/mL	COc1ccc(/C(C#N)=C/c2ccc(N3CCC(OP(=O)([O-])[O-])CC3)s2)cc1OC.[Na+].[Na+] [Compound 17, mono-(1-{5-[(Z)-2-cyano-2-(3,4-dimethoxy-phenyl)-vinyl]-thiophen-2-yl}-piperidin-4-yl)phosphate sodium salt]

More lines, now with the values behind:

Compound	EC50
COc1ccc(/C(C#N)=C/c2ccc(N)s2)cc1OC [Compound 3, (Z)-3-(5-amino-thiophen-2-yl)-2-(3,4-dimethoxy-phenyl)-acrylonitrile]	> 5 µg/mL
COc1ccc(/C(C#N)=C/c2ccc(N3CCOCC3)o2)cc1OC [Compound 25, (Z)-2-(3,4-dimethoxy-phenyl)-3-(5-morpholin-4-yl-furan-2-yl)-acrylonitrile]	> 5 µg/mL
COc1ccc(/C(C#N)=C/c2ccc(N3CCC(OP(=O)([O-])[O-])CC3)o2)cc1OC.[Na+].[Na+] [Compound 53, mono-(1-{5-[(Z)-2-cyano-2-(3,4-dimethoxy-phenyl)-vinyl]-furan-2-yl}-piperidin-4-yl)phosphate sodium salt]	> 5 µg/mL
COc1ccc(/C=C(\C#N)c2cccnc2)cc1OC [Compound 44, (Z)-3-(3,4-dimethoxy-phenyl)-2-pyridin-3-yl-acrylonitrile]	> 5 µg/mL
COc1ccc(/C=C(\C#N)c2cccs2)cc1OC [Compound 55, (E)-3-(3,4-dimethoxy-phenyl)-2-thiophen-2-yl-acrylonitrile]	> 5 µg/mL

Same assay, conditions: concentration for 50% reduction of relative paclitaxel resistance value; K562/MDR vs K562; 72 hours

Effect of overcoming resistance EC50	Compound
>5 µg/mL	COc1ccc(/C(C#N)=C/c2ccc(N3CCC(OP(=O)(O)O)CC3)o2)cc1OC [Compound 52, mono-(1-{5-[(Z)-2-cyano-2-(3,4-dimethoxy-phenyl)-vinyl]-furan-2-yl}-piperidin-4-yl)phosphate]
>5 µg/mL	COc1ccc(/C(C#N)=C/c2ccc(N3CCC(OC(=O)CCC(=O)O)CC3)s2)cc1OC [Compound 18, mono-(1-{5-[(Z)-2-cyano-2-(3,4-dimethoxy-phenyl)-vinyl]-thiophen-2-yl}-piperidin-4-yl)succinate]

Compound	Effect of overcoming resistance EC50
COc1ccc(/C(C#N)=C/c2ccc(CO)o2)cc1OC [Compound 20, (Z)-2-(3,4-dimethoxy-phenyl)-3-(5-hydroxy-methyl-furan-2-yl)-acrylonitrile]	>5 µg/mL
